Legend:
TβRII [1] = test: TβRII protein in human hair germinal matrix cells treated with HAPLN1 and/or HA, then TGF-β2 (Western blotting); type: cell-based; conditions: HAPLN1 25 ng/mL or HA 25 μg/mL alone; TGF-β2 2 ng/mL after 1 hour; 23 hours
Protocol: Human hair germinal matrix cells were dispensed into a poly-D-lysine 6-well plate at a concentration of 5.0×10^4 per well and cultured for 24 hours. After 24 hours, the medium was removed and replaced with a new serum-free medium. HAPLN1 was treated with 25 ng/mL, HA was treated with 25 μg/mL, and after 1 hour, TGF-β2 (2 ng/mL) was treated. After 23 hours, cells were collected, a lysis buffer (25 mM Tris-HCl, 1 mM EDTA, 0.1% Triton-X100, phosphatase inhibitor, and protease inhibitor) was added, and all the cells were broken through sonication. TβRI and TβRII in the sample were measured using Western blotting. The optical density of TβRII was compared to that of GAPDH using a densitometer.

TβRII [2] = test: TβRII protein after exogenous HAPLN1 and/or HA in endogenous HAPLN1-deficient human hair germinal matrix cells; type: cell-based; conditions: after HAPLN1 siRNA; HAPLN1 25 ng/mL and/or HA 25 μg/mL; TGF-β2 2 ng/mL, 23 hours
Protocol: (§1) The human hair germinal matrix cells were dispensed into a poly-D-lysine 6-well plate at a concentration of 5.0×10^4 per well and cultured for 24 hours. After 24 hours, the medium was removed and replaced with a low-serum medium. HAPLN1 siRNA and scrambled siRNA were added at a concentration of 25 pmol per well and incubated for 24 hours. After the siRNA and the medium were all removed, the medium was replaced with a serum-free medium having HAPLN1 (25 ng/mL) or HA (25 μg/mL) added thereto, and cultured for 1 hour. TGF-β2 (2 ng/mL) was treated and incubated for 23 hours. After collecting cells, a lysis buffer (25 mM Tris-HCl, 1 mM EDTA, 0.1% Triton-X100, phosphatase inhibitor, and protease inhibitor) was added, and all the cells were broken through sonication. TβRII in the sample was measured using Western blotting. The optical density of TβRII was compared to that of GAPDH using a densitometer.

TβRII [3] = test: TβRII protein after HAPLN1 and/or HA in CD44-deficient human hair germinal matrix cells; type: cell-based; conditions: after CD44 siRNA; HAPLN1 25 ng/mL and/or HA 25 μg/mL; TGF-β2 2 ng/mL, 23 hours
Protocol: as §1, with “matrix cells, which were made to be deficient in CD44 by using CD44 siRNA,” for “matrix cells”, “medium. CD44” for “medium. HAPLN1”

cell membrane TβRII = test: Cell membrane TβRII protein (biotin labelling, immunoprecipitation, Western blotting); type: cell-based, human; conditions: HAPLN1 25 ng/mL and/or HA 25 μg/mL; TGF-β2 2 ng/mL
Protocol: All proteins present in the cell membrane were labeled with biotin, and immunoprecipitation was performed with a biotin antibody to isolate only the cell membrane protein. In order to confirm changes in the ratio of TβRII among cell membrane proteins, Western blotting was performed. The specific experimental method will now be described.
Human hair germinal matrix cells were dispensed into a poly-D-lysine 100 mm dish at a concentration of 2.7×10^6 and cultured for 24 hours. After 24 hours, the medium was removed and replaced with a new serum-free medium. HAPLN1 was treated with 25 ng/mL and HA with 25 μg/mL, and after 1 hour, TGF-β2 (2 ng/mL) was treated. To label biotin after 23 hours, EZ-Link™ Sulfo-NHS-LC-Biotin (Thermo Fisher Scientific, MA, USA) was treated at a concentration of 250 μg/mL and incubated at 4° C. for 1 hour. The biotin labeling reaction was terminated by treatment with 50 mM Tris-HCl. After collecting cells, a lysis buffer (50 mM Tris-HCl, 150 mM NaCl, 1% NP-40, phosphatase inhibitor, and protease inhibitor) was added, and all the cells were broken through sonication. Cell membrane proteins were isolated by performing immunoprecipitation experiments using anti-biotin antibodies. TβRII in the isolated membrane protein sample was measured using Western blotting. The optical density of TβRII was compared to that of GAPDH using a densitometer.

p-ERK1/2 = p-ERK1/2 in human hair germinal matrix cells stimulated with TGF-β2 (Western blotting); type: cell-based; conditions: HAPLN1 25 ng/mL and/or HA 25 μg/mL, 23 hours; TGF-β2 2 ng/mL, 1 hour
Protocol: (§2) Human hair germinal matrix cells were dispensed into a poly-D-lysine 6-well plate at a concentration of 5.0×10^4 per well and cultured for 24 hours. After 24 hours, the medium was removed and replaced with a new serum-free medium. HAPLN1 was treated with 25 ng/mL and HA with 25 μg/mL, incubated for 23 hours, and then stimulated with TGF-β2 (2 ng/mL) for 1 hour. After collecting cells, a lysis buffer (25 mM Tris-HCl, 1 mM EDTA, 0.1% Triton-X100, phosphatase inhibitor, and protease inhibitor) was added, and all the cells were broken through sonication. p-ERK1/2, p-Smad2, p-MEK1/2, and p-c-Raf in the sample were measured using Western blotting. Optical densities of p-ERK1/2, p-Smad2, p-MEK1/2, and p-c-Raf were compared to those of ERK1/2, Smad2/3, MEK1, and c-Raf using a densitometer. Here, ERK1/2, Smad2/3, MEK1, and c-Raf were used as loading controls.

p-Smad2 = p-Smad2 in human hair germinal matrix cells stimulated with TGF-β2 (Western blotting); type: cell-based; conditions: HAPLN1 25 ng/mL and/or HA 25 μg/mL; TGF-β2 2 ng/mL, 1 hour
Protocol: as §2

p-MEK1/2 = p-MEK1/2 in human hair germinal matrix cells stimulated with TGF-β2 (Western blotting); type: cell-based; conditions: HAPLN1 25 ng/mL and/or HA 25 μg/mL; TGF-β2 2 ng/mL, 1 hour
Protocol: as §2

p-c-Raf = p-c-Raf in human hair germinal matrix cells stimulated with TGF-β2 (Western blotting); type: cell-based; conditions: HAPLN1 25 ng/mL and/or HA 25 μg/mL; TGF-β2 2 ng/mL, 1 hour
Protocol: as §2

[4] = tested on: human hair germinal matrix cells; test: Cell proliferation of human hair germinal matrix cells, CCK-8 (Example 10); type: cell-based; conditions: HAPLN1 25 ng/mL and/or HA 25 μg/mL; TGF-β2 2 ng/mL, 23 hours
Protocol: Human hair germinal matrix cells were dispensed into a poly-D-lysine 96-well plate at a concentration of 2.0×10^4 per well and cultured for 24 hours. After 24 hours, the medium was removed and replaced with a new serum-free medium. HAPLN1 was treated with 25 ng/mL and HA with 25 μg/mL, incubated for 1 hour, and then stimulated with TGF-β2 (2 ng/mL) for 23 hours. CCK-8 (Enzo Biochem, NY, USA) was treated and incubated at 37° C. for 1 hour.

[5] = tested on: human dermal papilla cells; test: Dermal papilla cell proliferating effect, CCK-8 (Example 13); type: cell-based; conditions: proteins 25 ng/ml, minoxidil 10 μM; TGF-β2 (2 ng/ml) present or absent
Protocol: Human dermal papilla cells were cultured in a 37° C., 5% CO2 incubator using a dermal papilla cell proliferation medium (Promocell). When the cells were about 90% full, the cells were detached with a 0.05% Trypsin/EDTA solution and then centrifuged at 1000 rpm for 3 minutes to recover only the cells. The cells were dispensed into a 96-well plate at 2.0×10^3 per well, cultured for 24 hours, and HAPLN1, CX3CL1 and CDON were diluted to have a final concentration of 25 ng/ml in serum-free medium. After removing the existing culture medium, 200 μl of diluted HAPLN1, CX3CL1, and CDON were dispensed into each well and cultured for 1 hour. To reduce an experimental variation, 3 wells per group were treated (triplication). In addition, minoxidil, which is known to proliferate dermal papilla cells, was treated with 10 μM and set as a positive control.
(§3) In the same manner as described above, HAPLN1 (25 ng/ml), CX3CL1 (25 ng/ml), CDON (25 ng/ml) or minoxidil (10 μM), and human recombinant TGF-β2 were diluted to a final concentration of 2 ng/ml, and the medium of the group containing TGF-β2 was replaced by 200 μl. To reduce an experimental variation, 3 wells per group were treated (triplication).
(§4) After incubation for 23 hours, the plate was removed from the incubator, and 20 μl of CCK-8 (WST-8) solution was added to the plate containing the medium and the reagent per 200 μl of the medium for the reaction to be carried out at 37° C. for 1 hour.

[6] = tested on: human hair germinal matrix cells; test: Hair germinal matrix cell proliferating effect, CCK-8 (Example 13); type: cell-based; conditions: 25 ng/ml; TGF-β2 condition not given
Protocol: as §3, §4
Human hair germinal matrix cells were released in a poly-D-lysine-coated flask using a mesenchymal stem cell medium (MSCM), and cultured in a 5% CO2 incubator at 37° C. When the cells were about 90% full, the cells were detached with a 0.05% Trypsin/EDTA solution, and then only the cells were recovered by centrifugation at 1000 rpm for 3 minutes. The recovered cells were dispensed into 96-well poly-D-lysine coated plates (BD bioscience) at 2.0×10^3 per well and cultured for 24 hours, and the final concentrations of HAPLN1, CX3CL1 and CDON were diluted to 25 ng/ml in a serum-free medium. The subsequent process was performed in the same manner as the experiment for the dermal papilla cells to measure the absorbance, and the results are shown in FIG. 22.

Molecule	TβRII protein (optical density compared to GAPDH) (TβRII [1])	TβRII protein in endogenous HAPLN1-deficient cells (TβRII [2])	TβRII protein in CD44-deficient cells (TβRII [3])	cell membrane TβRII protein concentration (cell membrane TβRII)	ERK1/2 signaling (p-ERK1/2 compared to ERK1/2) (p-ERK1/2)	phosphorylation of Smad2 (p-Smad2)	MEK1/2 activity (p-MEK1/2 compared to MEK1) (p-MEK1/2)	c-Raf activity (p-c-Raf compared to c-Raf) (p-c-Raf)	cell proliferation (absorbance at 450 nm) compared to the control group [4]	dermal papilla cell proliferation (absorbance at 450 nm) [5]	hair germinal matrix cell proliferation (absorbance at 450 nm) [6]
Hyaluronic acid [HA, reference compound]	increased	recovered	not confirmed that TβRII was recovered	increased	activated	no change	increased activities	increased activities	promoted		
CDON: protein expressed by a cell adhesion gene present in dermal papilla cells (protein, UniProt Q4KMG0 26-1287, looked up) Cell adhesion …: DLAPYFTSEPLSAVQKLGGPVVLHCSAQPVTTRISWLHNGKTLDGNLEHVKIHQGTLTILSLNSSLLGYYQCLANNSIGAIVSGPATVSVAVLGDFGSSTKHVITAEEKSAGFIGCRVPESNPKAEVRYKIRGKWLEHSTENYLILPSGNLQILNVSLEDKGSYKCAAYNPVTHQLKVEPIGRKLLVSRPSSDDVHILHPTHSQALAVLSRSPVTLECVVSGVPAPQVYWLKDGQDIAPGSNWRRLYSHLATDSVDPADSGNYSCMAGNKSGDVKYVTYMVNVLEHASISKGLQDQIVSLGATVHFTCDVHGNPAPNCTWFHNAQPIHPSARHLTAGNGLKISGVTVEDVGMYQCVADNGIGFMHSTGRLEIENDGGFKPVIITAPVSAKVADGDFVTLSCNASGLPVPVIRWYDSHGLITSHPSQVLRSKSRKSQLSRPEGLNLEPVYFVLSQAGASSLHIQAVTQEHAGKYICEAANEHGTTQAEASLMVVPFETNTKAETVTLPDAAQNDDRSKRDGSETGLLSSFPVKVHPSAVESAPEKNASGISVPDAPIILSPPQTHTPDTYNLVWRAGKDGGLPINAYFVKYRKLDDGVGMLGSWHTVRVPGSENELHLAELEPSSLYEVLMVARSAAGEGQPAMLTFRTSKEKTASSKNTQASSPPVGIPKYPVVSEAANNNFGVVLTDSSRHSGVPEAPDRPTISTASETSVYVTWIPRANGGSPITAFKVEYKRMRTSNWLVAAEDIPPSKLSVEVRSLEPGSTYKFRVIAINHYGESFRSSASRPYQVVGFPNRFSSRPITGPHIAYTEAVSDTQIMLKWTYIPSSNNNTPIQGFYIYYRPTDSDNDSDYKRDVVEGSKQWHMIGHLQPETSYDIKMQCFNEGGESEFSNVMICETKVKRVPGASEYPVKDLSTPPNSLGSGGNVGPATSPARSSDMLYLIVGCVLGVMVLILMVFIAMCLWKNRQQNTIQKYDPPGYLYQGSDMNGQMVDYTTLSGASQINGNVHGGFLTNGGLSSGYSHLHHKVPNAVNGIVNGSLNGGLYSGHSNSLTRTHVDFEHPHHLVNGGGMYTAVPQIDPLECVNCRNCRNNNRCFTKTNSTFSSSPPPVVPVVAPYPQDGLEMKPLSHVKVPVCLTSAVPDCGQLPEESVKDNVEPVPTQRTCCQDIVNDVSSDGSEDPAEFSRGQEGMINLRIPDHLQLAKSCVWEGDSCAHSETEINIVSWNALILPPVPEGCAEKTMWSPPGIPLDSPTEVLQQPRET										did not proliferate dermal papilla cells or rather inhibited proliferation thereof	inhibiting cell proliferation
CX3CL1: protein expressed by a cell adhesion gene present in dermal papilla cells (protein, UniProt P78423 25-397, looked up) Fractalkine: QHHGVTKCNITCSKMTSKIPVALLIHYQQNQASCGKRAIILETRQHRLFCADPKEQWVKDAMQHLDRQAAALTRNGGTFEKQIGEVKPRTTPAAGGMDESVVLEPEATGESSSLEPTPSSQEAQRALGTSPELPTGVTGSSGTRLPPTPKAQDGGPVGTELFRVPPVSTAATWQSSAPHQPGPSLWAEAKTSEAPSTQDPSTQASTASSPAPEENAPSEGQRVWGQGQSPRPENSLEREEMGPVPAHTDAFQDWGPGSMAHVSVVPVSSEGTPSREPVASGSWTPKAEEPIHATMDPQRLGVLITPVPDAQAATRRQAVGLLAFLGLLFCLGVAMFTYQSLQGCPRKMAGEMAEGLRYIPRSCGSNSYVLVPV										did not proliferate dermal papilla cells or rather inhibited proliferation thereof	inhibiting cell proliferation

From patent US20220202899A1, “COMPOSITION FOR PREVENTION OR TREATMENT OF HAIR LOSS INCLUDING HAPLN1” (HAPLNSCIENCE INC., priority 2019, published 2022)
